Reference: patent US7816408B2, “Calcium receptor active compounds” (NPS Pharmaceuticals, Inc., priority 2002, dated 2010)

Tested on: normal male SD rats
Experiment: Plasma Ca^2+ level of rats after single oral administration
Type: in vivo
Conditions: rat, mean of six animals, 1 hr after single oral dose 30 μmol/kg; vehicle 10% cyclodextrin (** 1% sodium-CMC)
Procedure: The compound of the present invention was administered to rats so as to examine the effects of the compound on the plasma calcium ion level and serum PTH level. The test was performed by orally administering single dose of the compound of the invention or a control compound to normal male SD rats with six animals in each group.
To the group 1 was administered as a control a 10% cyclodextrin aqueous solution in a dose of 2.5 ml/kg. To the group 2 was administered as a reference (R)-N-(3-(2-chlorophenyl)propyl)-1-(3-methoxyphenyl)ethylamine (KRN568) dissolved in a 10% cyclodextrin aqueous solution in a dose of 30 μmol/kg. To the group 3 was administered the compound of the present invention dissolved in a 10% cyclodextrin aqueous solution in a dose of 30 μmol/kg, provided that 1% sodium-CMC aqueous solution was used in place of 10% cyclodextrin aqueous solution for the compounds marked with ** in Table 2.
Blood of each rat was collected from the tail tip before the administration and 30 minutes and 1, 2, 4, 8 and 24 hours thereafter (or at the time indicated in Table 2), and the plasma Ca^2+ level and serum PTH level were measured. The data of the serum PTH level were statistically processed by the multiple comparison analysis in accordance with Steel's calibration by using the group 1 as the control.

Row | SMILES | Plasma Ca^2+ (mmol/l) 1 hr
1 | Cc1ccc(CN(Cc2ccc(Cl)c(Cl)c2)C(=O)CCN[C@H](C)c2cccc3ccccc23)cc1 [Compound K-2294, N1-(3,4-dichlorobenzyl)-N1-(4-methylbenzyl)-3-{[(1R)-1-(1-naphthyl)ethyl]amino}propanamide] | 1.357 mmol/L
2 | COc1ccc(CN(Cc2ccc(C(F)(F)F)cc2)C(=O)CCN[C@H](C)c2cccc3ccccc23)cc1 [Compound K-2290, N1-(4-methoxybenzyl)-N1-[4-(trifluoromethyl)benzyl)-3-{[(1R)-1-(1-naphthyl)ethyl]amino}propanamide] | 1.428 mmol/L

Same assay, conditions: rat, mean of six animals, 2 hr after single oral dose 30 μmol/kg; vehicle 10% cyclodextrin (** 1% sodium-CMC)

Row | SMILES | Plasma Ca^2+ (mmol/l) 2 hr
3 | Cc1ccc(CN(Cc2ccc(Cl)c(Cl)c2)C(=O)CCN[C@H](C)c2cccc3ccccc23)cc1 [Compound K-2294, N1-(3,4-dichlorobenzyl)-N1-(4-methylbenzyl)-3-{[(1R)-1-(1-naphthyl)ethyl]amino}propanamide] | 1.255 mmol/L
4 | COc1ccc(CN(Cc2ccc(C(F)(F)F)cc2)C(=O)CCN[C@H](C)c2cccc3ccccc23)cc1 [Compound K-2290, N1-(4-methoxybenzyl)-N1-[4-(trifluoromethyl)benzyl)-3-{[(1R)-1-(1-naphthyl)ethyl]amino}propanamide] | 1.248 mmol/L

Same assay, conditions: rat, mean of six animals, 4 hr after single oral dose 30 μmol/kg; vehicle 10% cyclodextrin (** 1% sodium-CMC)

Row | SMILES | Plasma Ca^2+ (mmol/l) 4 hr
5 | Cc1ccc(CN(Cc2ccc(Cl)c(Cl)c2)C(=O)CCN[C@H](C)c2cccc3ccccc23)cc1 [Compound K-2294, N1-(3,4-dichlorobenzyl)-N1-(4-methylbenzyl)-3-{[(1R)-1-(1-naphthyl)ethyl]amino}propanamide] | 1.117 mmol/L
6 | COc1ccc(CN(Cc2ccc(C(F)(F)F)cc2)C(=O)CCN[C@H](C)c2cccc3ccccc23)cc1 [Compound K-2290, N1-(4-methoxybenzyl)-N1-[4-(trifluoromethyl)benzyl)-3-{[(1R)-1-(1-naphthyl)ethyl]amino}propanamide] | 1.063 mmol/L

Same assay, conditions: rat, mean of six animals, 8 hr after single oral dose 30 μmol/kg; vehicle 10% cyclodextrin (** 1% sodium-CMC)

Row | SMILES | Plasma Ca^2+ (mmol/l) 8 hr
7 | Cc1ccc(CN(Cc2ccc(Cl)c(Cl)c2)C(=O)CCN[C@H](C)c2cccc3ccccc23)cc1 [Compound K-2294, N1-(3,4-dichlorobenzyl)-N1-(4-methylbenzyl)-3-{[(1R)-1-(1-naphthyl)ethyl]amino}propanamide] | 1.022 mmol/L
8 | COc1ccc(CN(Cc2ccc(C(F)(F)F)cc2)C(=O)CCN[C@H](C)c2cccc3ccccc23)cc1 [Compound K-2290, N1-(4-methoxybenzyl)-N1-[4-(trifluoromethyl)benzyl)-3-{[(1R)-1-(1-naphthyl)ethyl]amino}propanamide] | 1.055 mmol/L

Target: T1, human calcium receptor (Homo sapiens, UniProt P41180)
T1 construct: expressed in transfected cells; host or cells: HEK293
T1 sequence (P41180 20-1078): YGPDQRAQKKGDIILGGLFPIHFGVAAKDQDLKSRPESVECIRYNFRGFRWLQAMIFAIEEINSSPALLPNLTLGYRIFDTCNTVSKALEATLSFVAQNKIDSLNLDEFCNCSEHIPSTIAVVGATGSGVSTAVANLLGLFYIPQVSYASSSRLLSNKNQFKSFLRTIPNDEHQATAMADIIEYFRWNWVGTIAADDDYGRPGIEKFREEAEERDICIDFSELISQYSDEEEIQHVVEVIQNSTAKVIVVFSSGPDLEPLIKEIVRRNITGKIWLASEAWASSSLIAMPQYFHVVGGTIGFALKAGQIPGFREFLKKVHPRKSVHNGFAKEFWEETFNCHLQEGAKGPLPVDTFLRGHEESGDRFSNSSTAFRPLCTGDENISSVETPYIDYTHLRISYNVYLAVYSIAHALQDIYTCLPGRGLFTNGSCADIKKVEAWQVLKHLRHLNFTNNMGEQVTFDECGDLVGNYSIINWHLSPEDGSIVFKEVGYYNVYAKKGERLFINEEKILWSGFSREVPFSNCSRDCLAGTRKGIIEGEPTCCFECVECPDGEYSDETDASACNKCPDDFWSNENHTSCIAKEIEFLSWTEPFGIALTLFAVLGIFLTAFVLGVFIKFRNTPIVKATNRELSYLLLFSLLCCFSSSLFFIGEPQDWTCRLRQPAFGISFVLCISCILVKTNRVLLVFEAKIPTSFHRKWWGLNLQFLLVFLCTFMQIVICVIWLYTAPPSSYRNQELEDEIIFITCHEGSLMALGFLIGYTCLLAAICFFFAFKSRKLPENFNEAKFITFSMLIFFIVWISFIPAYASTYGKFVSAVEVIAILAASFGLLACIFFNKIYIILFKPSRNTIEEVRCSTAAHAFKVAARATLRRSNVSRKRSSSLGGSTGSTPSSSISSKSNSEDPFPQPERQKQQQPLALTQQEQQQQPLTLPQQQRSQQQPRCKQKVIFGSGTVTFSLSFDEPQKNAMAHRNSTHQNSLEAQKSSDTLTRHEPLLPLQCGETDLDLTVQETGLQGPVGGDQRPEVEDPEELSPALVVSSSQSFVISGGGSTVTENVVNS
Experiment: Activity on calcium receptors: fluo-3 fluorescence in HEK293 cells transfected with human calcium receptor gene
Type: cell-based
Conditions: HEK293 cells transfected with plasmid pHuPCaR4.0 (human calcium receptor gene), loaded with fluo-3; 1 mM CaCl2, 1 mM MgCl2
Procedure: The activities of the compounds of the present invention on calcium receptors were measured. The measurement was performed in accordance with the method described in Example 4 of Nemeth et al., PCT/US95/13704 (International Publication No. WO96/12697). In brief, HEK293 cells were transfected with a plasmid pHuPCaR4.0 containing a human calcium receptor gene and loaded with fluo-3. The loading was carried out by incubating the cells at 37° C. for 1 hour in Dulbecco's modified Eagle's medium which contained about 5 μM of fluo-3/AM and had been buffered with 20 mM HEPES. Next, the cells were rinsed with Hank's balanced salt solution which contained 1 mM CaCl2 and 1 mM MgCl2 and had been buffered with 20 mM HEPES. Then each test compound was added to the cells and the fluorescence was measured with the use of an excitation wavelength of 485 nm and an emission wavelength of 540 nm.

Row | SMILES | EC50
9 | Cc1ccc(CN(Cc2ccc(Cl)c(Cl)c2)C(=O)CCN[C@H](C)c2cccc3ccccc23)cc1 [Compound K-2294, N1-(3,4-dichlorobenzyl)-N1-(4-methylbenzyl)-3-{[(1R)-1-(1-naphthyl)ethyl]amino}propanamide] | 0.062 µM
10 | COc1ccc(CN(Cc2ccc(C(F)(F)F)cc2)C(=O)CCN[C@H](C)c2cccc3ccccc23)cc1 [Compound K-2290, N1-(4-methoxybenzyl)-N1-[4-(trifluoromethyl)benzyl)-3-{[(1R)-1-(1-naphthyl)ethyl]amino}propanamide] | 0.1 µM
11 | CC(NCCC(=O)N(Cc1ccc(F)cc1)Cc1ccc(F)cc1)c1cccc2ccccc12 (stereo not shown) [Compound K-2256] | 0.18 µM
12 | COc1cccc([C@@H](C)NCCCOc2ccc(-c3ccccc3)cc2)c1 [Compound 83] | 1 µM
13 | COc1cccc(C(C)NCCCSc2ccc(C(F)(F)F)cc2)c1 (stereo not shown) [Compound K-2055] | 0.057 µM
14 | COc1cccc(C(C)NCCCCSc2cccc(Br)c2)c1 (stereo not shown) [Compound K-2047] | 0.13 µM
15 | CC(NCCC(=O)N(Cc1ccccc1)Cc1ccccc1)c1cccc2ccccc12 (stereo not shown) [Compound K-2177] | 0.075 µM
16 | COc1cccc(C(C)NCCCCCSc2ccc(F)cc2)c1 (stereo not shown) [Compound K-2041] | 0.1 µM
17 | COc1cccc(C(C)NCCCCSc2nc3ccccc3s2)c1 (stereo not shown) [Compound 36] | 0.21 µM
18 | C[C@@H](NCCC(=O)N(Cc1ccc(C(F)(F)F)cc1)Cc1ccc(C(F)(F)F)cc1)c1cccc2ccccc12 [Compound K-2259, N1,N1-di[4-(trifluoromethyl)benzyl]-3-{[(1R)-1-(1-naphthyl)ethyl]amino}propanamide] | 0.0024 µM
19 | COc1cccc(C(C)NCCCCSc2c(Cl)cccc2Cl)c1 (stereo not shown) [Compound K-2085] | 0.13 µM
20 | COc1cccc(C(C)NCCCCSc2ccc(F)cc2)c1 (stereo not shown) [Compound K-2040] | 0.08 µM
21 | CC(NCCSc1cc(Cl)c(Cl)cc1Cl)c1cccc2ccccc12 (stereo not shown) [Compound K-2295] | 1.36 µM
22 | CC(NCCC(=O)N(Cc1cccc(Cl)c1)Cc1cccc(Cl)c1)c1cccc2ccccc12 (stereo not shown) [Compound K-2253] | 0.19 µM
23 | COc1cccc(C(C)NCCCOc2ccc(Br)cc2)c1 (stereo not shown) [Compound K-2003] | 0.29 µM
24 | COc1cccc(C(C)NCCCCCSc2cccc(Br)c2)c1 (stereo not shown) [Compound K-2048] | 0.73 µM
25 | COc1cccc(C(C)NCCCCCCCSc2ccc(C(F)(F)F)cc2)c1 (stereo not shown) [Compound K-2059] | 0.27 µM
26 | COc1cccc(C(C)NCCCSc2ccccc2Br)c1 (stereo not shown) [Compound K-2016] | 0.36 µM
27 | COc1cccc(C(C)NCCCSc2cccc(Cl)c2)c1 (stereo not shown) [Compound K-2061] | 0.15 µM
28 | C[C@@H](NCCC(=O)N(Cc1ccc(OC(F)(F)F)cc1)Cc1ccc(OC(F)(F)F)cc1)c1cccc2ccccc12 [Compound K-2257, N1,N1-di[4-(trifluoromethoxy)benzyl]-3-{[(1R)-1-(1-naphthyl)ethyl]amino}propanamide] | 0.039 µM
29 | COc1cccc(C(C)NCCCOc2cccc(Cl)c2)c1 (stereo not shown) [Compound 65] | 0.524 µM
30 | COc1cccc(C(C)NCCCCCSc2ccc(Cl)c(Cl)c2)c1 (stereo not shown) [Compound K-2080] | 0.77 µM
31 | C[C@@H](NCCC(=O)N(Cc1ccccc1)Cc1ccc2ccccc2c1)c1cccc2ccccc12 [Compound K-2248] | 0.078 µM
32 | COc1cccc(C(C)NCCCCOc2ccccc2Cl)c1 (stereo not shown) [Compound 2] | 13 µM

Row | SMILES | EC50
33 | COc1cccc(C(C)NCCCCSc2ccc(C(F)(F)F)cc2)c1 (stereo not shown) [Compound K-2056] | 0.039 µM
34 | CC(NCCC(=O)N(Cc1ccccc1)Cc1ccc(Cl)cc1Cl)c1cccc2ccccc12 (stereo not shown) [Compound K-2251] | 0.051 µM
35 | COc1cccc(C(C)NCCCOc2ccc3ccccc3c2)c1 (stereo not shown) [Compound 74] | 7.2 µM
36 | CC(NCCCOc1ccc2oc(-c3ccccc3)cc(=O)c2c1)c1cccc2ccccc12 (stereo not shown) [Compound 103] | 0.3 µM
37 | CC(NCCOc1cccc(Cl)c1)c1cccc2ccccc12 (stereo not shown) [Compound K-2030] | 0.049 µM
38 | COc1cccc(C(C)NCCSc2cccc(C(F)(F)F)c2)c1 (stereo not shown) [Compound K-2008] | 0.86 µM
39 | COc1cccc([C@@H](C)NCCCCCSc2cccc(C(F)(F)F)c2)c1 [Compound K-2011] | 0.21 µM
40 | CC(NCCCCCSc1ccccc1Br)c1cccc2ccccc12 (stereo not shown) [Compound K-2075] | 0.14 µM
41 | COc1cccc([C@@H](C)NCCCCCSc2ccc(C(F)(F)F)cc2)c1 [Compound K-2057] | 0.41 µM
42 | COc1cccc(C(C)NCCCCCOc2ccc(Cl)cc2)c1 (stereo not shown) [Compound 16] | 0.55 µM
43 | COc1cccc([C@@H](C)NCCCCOc2ccc(Cl)cc2)c1 [Compound 14] | 2.9 µM
44 | C[C@@H](NCCCCSc1ccc(C(F)(F)F)cc1)c1cccc2ccccc12 [Compound K-2246, N-[(1R)-1-(1-naphthyl)ethyl]-N-(4-{[4-(trifluoromethyl)phenyl]thio}butyl)amine] | 0.12 µM
45 | Cc1cc(C)cc(SCCNC(C)c2cccc3ccccc23)c1 (stereo not shown) [Compound S-64] | 0.098 µM
46 | COc1cccc(C(C)NCCCCCCSc2cccc(C(F)(F)F)c2)c1 (stereo not shown) [Compound K-2012] | 0.87 µM
47 | CC(NCCCCSc1ccc(Br)cc1)c1cccc2ccccc12 (stereo not shown) [Compound S-80] | 0.1 µM
48 | COc1cccc(C(C)NCCCOc2ccc3[nH]ccc3c2)c1 (stereo not shown) [Compound 80] | 0.464 µM
49 | COc1cccc(C(C)NCCCCSc2ccccc2Br)c1 (stereo not shown) [Compound K-2017] | 0.36 µM
50 | COc1cccc(C(C)NCCCOc2ccc3c(c2)Cc2ccccc2-3)c1 (stereo not shown) [Compound 59] | 1.02 µM
51 | CC(NCCCNC(C)c1cccc2ccccc12)c1cccc2ccccc12 (stereo not shown) [Compound 93] | 0.11 µM
52 | CC(NCCCCCCCSc1c(Cl)c(Cl)nc(Cl)c1Cl)c1cccc2ccccc12 (stereo not shown) [Compound S-193] | 0.066 µM
53 | COc1cccc(C(C)NCCCCOc2cccc(Cl)c2)c1 (stereo not shown) [Compound 8] | 1.9 µM
54 | C[C@@H](NCCSc1cc(Cl)ccc1Cl)c1cccc2ccccc12 [Compound K-2117, (R)-N-[1-(1′-naphthyl)ethyl]-2-(2′,5′-dichlorophenylthio)ethylamine] | 0.043 µM
55 | CC(NCCC(=O)N(Cc1ccc(Cl)cc1)Cc1cccc(Cl)c1)c1cccc2ccccc12 (stereo not shown) [Compound K-2261] | 0.026 µM
